Measured values from patent US10988523B2, “Modified lipidated Relaxin B chain peptides and their therapeutic use” (Sanofi, priority 2018, dated 2021).
*1 amine or outer side, *2 acyl side, *3 side chain or, on linkers, in order; H or OH if unused. Where a SMILES comes first, the peptide text is derived from it. Side-chain parts run from the residue outwards. [ ]: non-standard residue; d: D form. The star is where a group is joined. PEG12 = NCCOCCOCCOCCOCCOCCOCCOCCOCCOCCOCCOCCOCCC(=O)O; γGlu = O=C(O)[C@H](CCC(=O)[*:2])N[*:1]; Stearoyl = CCCCCCCCCCCCCCCCCC(=O)*; Palmitoyl = CCCCCCCCCCCCCCCC(=O)*; αMeK = C[C@](N)(CCCCN)C(=O)O; Nle = CCCC[C@H](N)C(=O)O; AEEA = NCCOCCOCC(=O)O; Aib = CC(C)(N)C(=O)O

What was measured:
RXFP1 = target: T1, RXFP1 (Homo sapiens, UniProt Q9HBX9); assay: OVCAR5 cAMP assay (HTRF), RXFP1 agonist activity; format: cell-based; settings: for Emax: OVCAR-5, maximal cAMP relative to H2-relaxin maximum (100%), read-out: EMax, OVCAR 5 cells (cAMP); for EC50: OVCAR5 cells, cAMP HTRF, read-out: EC50 (nM), OVCAR 5 cells (cAMP)
T1 construct: OVCAR5 cells expressing endogenous RXFP1; endogenous in cells; host or cells: OVCAR5 cells
T1 sequence (Q9HBX9 1-757): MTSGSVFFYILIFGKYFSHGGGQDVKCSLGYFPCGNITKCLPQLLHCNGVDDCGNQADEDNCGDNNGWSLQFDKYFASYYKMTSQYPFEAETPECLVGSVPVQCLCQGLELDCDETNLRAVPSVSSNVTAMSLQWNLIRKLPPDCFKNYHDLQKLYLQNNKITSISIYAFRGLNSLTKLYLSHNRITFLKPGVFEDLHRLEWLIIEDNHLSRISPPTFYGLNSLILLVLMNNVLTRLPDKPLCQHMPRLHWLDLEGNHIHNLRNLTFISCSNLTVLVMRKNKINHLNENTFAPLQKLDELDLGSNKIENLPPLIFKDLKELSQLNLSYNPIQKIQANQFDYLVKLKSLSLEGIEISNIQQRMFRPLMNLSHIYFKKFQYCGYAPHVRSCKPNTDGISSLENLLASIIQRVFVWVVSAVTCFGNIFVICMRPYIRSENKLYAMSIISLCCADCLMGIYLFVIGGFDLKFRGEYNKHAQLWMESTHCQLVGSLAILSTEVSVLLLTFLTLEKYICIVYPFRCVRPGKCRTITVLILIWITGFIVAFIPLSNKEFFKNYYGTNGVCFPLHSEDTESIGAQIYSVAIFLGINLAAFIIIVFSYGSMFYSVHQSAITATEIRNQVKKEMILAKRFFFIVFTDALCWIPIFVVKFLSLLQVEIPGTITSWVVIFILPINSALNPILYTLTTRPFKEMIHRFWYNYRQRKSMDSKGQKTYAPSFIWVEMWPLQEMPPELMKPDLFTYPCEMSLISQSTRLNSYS
How it was run: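 OVCAR5 cells (endogenous RXFP1) pretreated 40 min at 37° C with 1 mM IBMX, then exposed to peptides in serum-free medium for 30 min at 37° C. Lysate cAMP read by HTRF; EC50 from variable-slope sigmoidal fit; Emax as % of H2-relaxin maximal cAMP in same run.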

[1] = Pharmacokinetic (PK) determination after i.v. or s.c. administration to rats; format: in vivo, Sprague Dawley rats; settings: Rat PK; for C0 / half-life / Cmax / Tmax / bioavailability: Sprague Dawley; for C0 / half-life: iv; for C0: extrapolated plasma concentration at t=0, read-out: C0; for half-life / Cmax / Tmax / bioavailability: plasma; for half-life: read-out: T½ (converted); for Cmax / Tmax: sc, 3 mg/kg s.c.; for bioavailability: subcutaneous, 3 mg/kg s.c. vs 1 mg/kg i.v., dose-corrected AUC ratio
How it was run: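 Sprague Dawley rats received peptide in PBS at 1 mg/kg i.v. or 3 mg/kg s.c., dose corrected for salts, solvent and purity. Plasma analysed by LC/MS after protein precipitation; non-compartmental PK, BLQ values set to zero, F% as dose-corrected s.c./i.v. AUC ratio.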

| Compound | Emax (RXFP1) [%] | C0 ([1]; 1 mg/kg i.v.) [nM] | half-life ([1]; 1 mg/kg i.v.) [h] | Cmax [1] [nM] | Tmax [1] [h] | bioavailability [1] [%] | EC50 (RXFP1) [nM] | T½ ([1]; 1 mg/kg i.v.) [h] |
| --- | --- | --- | --- | --- | --- | --- | --- | --- |
| CCCCCCCCCCCCCCCCCC(=O)N[C@@H](CCC(=O)N[C@@H](CCC(=O)N[C@@H](CCC(=O)N[C@@H](CCC(=O)NCCOCCOCC(=O)NCCOCCOCC(=O)NCCOCCOCC(=O)NCCOCCOCC(=O)NCCCC[C@H](NC(=O)[C@H](CCCCN)NC(=O)[C@H](CCCCN)NC(=O)[C@H](CCCNC(=N)N)NC(=O)C(C)(C)NC(=O)[C@H](CO)NC(=O)[C@H](Cc1c[nH]c2ccccc12)NC(=O)[C@@H](NC(=O)[C@H](CO)NC(=O)[C@H](CCCC)NC(=O)CNC(=O)[C@H](CCC(=O)O)NC(=O)C(C)(C)NC(=O)C(C)(C)NC(=O)[C@@H](NC(=O)[C@H](CCCCNC(C)=O)NC(=O)[C@H](C)NC(=O)[C@H](CCCNC(=N)N)NC(=O)[C@@H](NC(=O)[C@H](CCCCN)NC(=O)[C@H](CCC(=O)O)NC(=O)[C@H](CCCNC(=N)N)NC(=O)CNC(=O)[C@H](CCC(=O)O)NC(=O)[C@H](CC(C)C)NC(C)=O)C(C)C)[C@@H](C)CC)[C@@H](C)O)C(N)=O)C(=O)O)C(=O)O)C(=O)O)C(=O)O [compound 91] (Ac-LEGREKVRAK(Ac)I[Aib][Aib]EG[Nle]STWS[Aib]RKKK([AEEA-AEEA-AEEA-AEEA-γGlu-γGlu-γGlu-γGlu-Stearoyl])-NH2) | 88 | 2900 | 3 | 1300 | 7 | 89 |  |  |
| CCCCCCCCCCCCCCCC(=O)N[C@@H](CCC(=O)N[C@@H](CCC(=O)N[C@@H](CCC(=O)N[C@@H](CCC(=O)NCCCC[C@H](NC(=O)COCCOCCNC(=O)COCCOCCNC(=O)COCCOCCNC(=O)COCCOCCNC(=O)[C@H](CCCCNC(C)=O)NC(=O)[C@H](CCCCN)NC(=O)[C@H](CCCNC(=N)N)NC(=O)[C@](C)(CCCCN)NC(=O)[C@H](CO)NC(=O)[C@H](Cc1c[nH]c2ccccc12)NC(=O)[C@@H](NC(=O)[C@H](CO)NC(=O)[C@H](CCCC)NC(=O)CNC(=O)[C@H](CCC(=O)O)NC(=O)C(C)(C)NC(=O)C(C)(C)NC(=O)[C@@H](NC(=O)[C@H](CCCCNC(C)=O)NC(=O)[C@H](C)NC(=O)[C@H](CCCNC(=N)N)NC(=O)[C@@H](NC(=O)[C@H](CCCCN)NC(=O)[C@H](CCC(=O)O)NC(=O)[C@H](CCCNC(=N)N)NC(=O)CNC(=O)[C@H](CCC(=O)O)NC(=O)[C@H](CC(C)C)NC(C)=O)C(C)C)[C@@H](C)CC)[C@@H](C)O)C(N)=O)C(=O)O)C(=O)O)C(=O)O)C(=O)O [compound 131] (Ac-LEGREKVRAK(Ac)I[Aib][Aib]EG[Nle]STWS[αMeK]RKK(Ac)[AEEA][AEEA][AEEA][AEEA]K([γGlu-γGlu-γGlu-γGlu-Palmitoyl])-NH2) | 92 | 2500 | 6.3 | 1390 | 8 | 82 | 0.26 |  |
| CCCCCCCCCCCCCCCCCC(=O)N[C@@H](CCC(=O)NCCOCCOCC(=O)N[C@@H](CCC(=O)N[C@@H](CCC(=O)NCCOCCOCC(=O)NCCOCCOCC(=O)NCCCC[C@H](NC(=O)[C@H](CCCCNC(C)=O)NC(=O)[C@H](CCCCN)NC(=O)[C@H](CCCNC(=N)N)NC(=O)C(C)(C)NC(=O)[C@H](CO)NC(=O)[C@H](Cc1c[nH]c2ccccc12)NC(=O)[C@@H](NC(=O)[C@H](CO)NC(=O)[C@H](CCCC)NC(=O)CNC(=O)[C@H](CCC(=O)O)NC(=O)C(C)(C)NC(=O)C(C)(C)NC(=O)[C@@H](NC(=O)[C@H](CCCCNC(C)=O)NC(=O)[C@H](C)NC(=O)[C@H](CCCNC(=N)N)NC(=O)[C@@H](NC(=O)[C@H](CCCCN)NC(=O)[C@H](CCC(=O)O)NC(=O)[C@H](CCCNC(=N)N)NC(=O)CNC(=O)[C@H](CCC(=O)O)NC(=O)[C@H](CC(C)C)NC(C)=O)C(C)C)[C@@H](C)CC)[C@@H](C)O)C(N)=O)C(=O)O)C(=O)O)C(=O)O [compound 101] (Ac-LEGREKVRAK(Ac)I[Aib][Aib]EG[Nle]STWS[Aib]RKK(Ac)K([AEEA-AEEA-γGlu-γGlu-AEEA-γGlu-Stearoyl])-NH2) | 86 | 1800 | 1.8 | 1000 | 7 | 39 | 0.16 |  |
| CCCCCCCCCCCCCCCCCC(=O)N[C@@H](CCC(=O)N[C@@H](CCC(=O)N[C@@H](CCC(=O)NCCOCCOCC(=O)NCCOCCOCC(=O)NCCOCCOCC(=O)NCCCC[C@H](NC(=O)[C@H](CCCCNC(C)=O)NC(=O)[C@H](CCCCN)NC(=O)[C@H](CCCNC(=N)N)NC(=O)C(C)(C)NC(=O)[C@H](CO)NC(=O)[C@H](Cc1ccccc1)NC(=O)[C@@H](NC(=O)[C@H](CO)NC(=O)[C@H](CCCC)NC(=O)CNC(=O)[C@H](CCC(=O)O)NC(=O)C(C)(C)NC(=O)C(C)(C)NC(=O)[C@@H](NC(=O)[C@H](CCCCNC(C)=O)NC(=O)[C@H](C)NC(=O)[C@H](CCCNC(=N)N)NC(=O)[C@@H](NC(=O)[C@H](CCCCN)NC(=O)[C@H](CCC(=O)O)NC(=O)[C@H](CCCNC(=N)N)NC(=O)CNC(=O)[C@H](CCC(=O)O)NC(=O)[C@H](CC(C)C)NC(C)=O)C(C)C)[C@@H](C)CC)[C@@H](C)O)C(N)=O)C(=O)O)C(=O)O)C(=O)O [compound 112] (Ac-LEGREKVRAK(Ac)I[Aib][Aib]EG[Nle]STFS[Aib]RKK(Ac)K([AEEA-AEEA-AEEA-γGlu-γGlu-γGlu-Stearoyl])-NH2) | 88 | 3500 | 3.3 | 2200 | 8 | 63 | 0.32 |  |
| CCCCCCCCCCCCCCCC(=O)N[C@@H](CCC(=O)N[C@@H](CCC(=O)N[C@@H](CCC(=O)NCCCC[C@H](NC(=O)CCOCCOCCOCCOCCOCCOCCOCCOCCOCCOCCOCCOCCNC(=O)[C@H](CCCCNC(C)=O)NC(=O)[C@H](CCCCN)NC(=O)[C@H](CCCNC(=N)N)NC(=O)C(C)(C)NC(=O)[C@H](CO)NC(=O)[C@H](Cc1c[nH]c2ccccc12)NC(=O)[C@@H](NC(=O)[C@H](CO)NC(=O)[C@H](CCCC)NC(=O)CNC(=O)[C@H](CCC(=O)O)NC(=O)C(C)(C)NC(=O)C(C)(C)NC(=O)[C@@H](NC(=O)[C@H](CCCCNC(C)=O)NC(=O)C(C)(C)NC(=O)[C@H](CCCNC(=N)N)NC(=O)[C@@H](NC(=O)[C@H](CCCCN)NC(=O)[C@H](CCC(=O)O)NC(=O)[C@H](CCCNC(=N)N)NC(=O)CNC(=O)[C@H](CCC(=O)O)NC(=O)[C@H](CC(C)C)NC(C)=O)C(C)C)[C@@H](C)CC)[C@@H](C)O)C(N)=O)C(=O)O)C(=O)O)C(=O)O [compound 27] (Ac-LEGREKVR[Aib]K(Ac)I[Aib][Aib]EG[Nle]STWS[Aib]RKK(Ac)[PEG12]K([γGlu-γGlu-γGlu-Palmitoyl])-NH2) | 86 | 3200 |  | 1500 | 8 | 62 | 0.3 | 6.90 |
